Experimental findings from patent US20070049535A1, “PREVENTIVE/REMEDY FOR DIABETIC COMPLICATIONS USING OLIGOPEPTIDE” (priority 2004, published 2007) are described below.

Molecules are shown by their SMILES. pIC50: −log10 of the molar value. Like-named read-outs stand apart in the source and are kept apart here. Peptide text beside a SMILES is read from it.

Series [1] concerns AGE2 production by glyceraldehyde and bovine serum albumin. Put plainly: Inhibition of AGE2 production by glyceraldehyde and serum albumin (ELISA with anti-AGE2 polyclonal antibody). To be noted: read-out: IC50 of inhibition of AGE2 production; 10 mM glyceraldehyde, 10 mg/ml bovine serum albumin, phosphate buffer pH 7.4, 37° C., 3 days. On the technique in general: ELISA stands for enzyme-linked immunosorbent assay.
Method: (§1) Three days later, AGE2 concentration of the reaction mixture was measured, and IC50 value of inhibition of AGE2 production by each peptide or amino acid was calculated. The AGE2 measurement was performed by the ELISA method using an anti-AGE2 polyclonal antibody prepared from rabbit, according to a conventional method.

The test system is the same in series [2]. To be noted: pH 7.4.
Method: as §1
Series [3] is described as follows: AGE2-producing capability by reaction of oligopeptide with glyceraldehyde (ELISA with anti-AGE2 polyclonal antibody). The class given is biochemical. As to conditions: for AGE2 concentration: 10 mM amino acid or peptide + 100 mM glyceraldehyde, 0.1M phosphate buffer pH 7.4, 37° C., 1 week. As to the method: To 0.1M phosphate buffer (pH 7.4) containing 10 mM of any of Lys, Lys-Lys, Lys-Lys-Lys, and Lys-Lys-Lys-Lys (SEQ ID NO: 1) was added 100 mM glyceraldehyde and the mixture was reacted at 37° C. for 1 week. One week later, the AGE2 concentration of the reaction mixture was measured.

The next series concerns serum AGE2. The experiment in a line: Serum AGE2 concentration reduction in diabetic mouse model (db/db mouse). The series is classed as in vivo. As to conditions: db/db mice. How it is done:
7-Week-old male db/db mice were randomly divided into 4 groups (3 per group), distilled water, 10 mM Lys-Lys solution, 30 mM Lys-Lys solution, or 100 mM Lys-Lys solution was freely given for 10 days as drinking water, blood samples were collected from the heart, and the serum AGE2 concentration was measured.

Broadly, the pIC50 is −log10 of the IC50, conventionally taken in molar units. As for `N=C(N)NCCC[C@H](N)C(=O)O` [Arg, reference compound], the negative logarithm of the IC50 (pIC50) in series [1] is 2.72.

For `NCCCC[C@H](NC(=O)[C@@H](N)CCCN=C(N)N)C(=O)O` [Arg-Lys] (H-Arg-Lys-OH), in series [2] (bovine, 3 days), the pIC50 is 3.11.

Take `NCCCC[C@H](N)C(=O)O` [Lys, reference compound]: the AGE2 concentration in series [3] was found to be 0.47 U/ml. The pIC50 in series [2] is 2.66.

Take `NCCCC[C@H](NC(=O)[C@H](CCCCN)NC(=O)[C@H](CCCCN)NC(=O)[C@@H](N)CCCCN)C(=O)O` [Lys-Lys-Lys-Lys] (H-KKKK-OH): the AGE2 concentration in series [3] is reported as 14.2 U/ml. In addition, in series [1], the negative logarithm of the IC50 (pIC50) was 3.21.

As for `NCCCC[C@H](NC(=O)[C@@H](N)CCCCN)C(=O)O` [Lys-Lys], the AGE2 concentration in series [3] amounted to 4.7 U/ml. Also, in series [3] (reaction with glyceraldehyde, versus Lys alone), the “AGE2 production capacity relative to Lys alone” value is listed as “about 10 times”. Moreover, the “serum AGE2 concentration” value in the series on serum AGE2 (10 mM solution as drinking water for 10 days) is recorded as 3.5 ± 0.6 U/ml; in the series on serum AGE2 (30 mM solution as drinking water for 10 days) it was 2.3 ± 0.4 U/ml; in the series on serum AGE2 (100 mM solution as drinking water for 10 days), 1.7 ± 0.2 U/ml. For the same compound, in the series with serum AGE2 (10-100 mM solution as drinking water for 10 days), the “serum AGE2 concentration, dose dependence” value is listed as “decreased in a manner dependent on the Lys-Lys concentration”. The compound further gave a pIC50 in series [2] (bovine, 3 days) of 3.25.
